Where two headings read alike, the source gives them in different places.
Tests used:
[1] = system: Dengue-2 (Strain New Guinea C); test: Viral yield assay against Dengue-2 in Vero cells; type: cell-based, Dengue virus; conditions: Dengue virus, read-out: Activity (EC50 in μM) DENV-2
Method in brief: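 Yield reduction, Vero; MOI 0.1; compound vs DMSO; 37° C; harvest 48 h p.i.; titer on Vero; EC50 fitted. Other serotypes run the same way.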

[2] = system: DENV-1; test: Viral yield assay against DENV-1 in Vero cells; type: cell-based; conditions: Dengue virus
Procedure: (§1) Compounds that were active in the primary screen were tested for activity in viral yield assays. […] Vero cells in 12-well plates were infected with dengue-2 virus at a multiplicity of infection (MOI) of 0.1, treated with compound (or DMSO as a control), incubated at 37° C., harvested 48 hours post infection and titered on Vero cells as described above. The EC50 was calculated through ExcelFit. Activities against other serotypes of dengue virus were determined in a similar way.

[3] = system: DENV-3; test: Viral yield assay against DENV-3 in Vero cells; type: cell-based; conditions: Dengue virus
Procedure: as §1

[4] = system: DENV-4; test: Viral yield assay against DENV-4 in Vero cells; type: cell-based; conditions: Dengue virus
Procedure: as §1

[5] = DENV2, viral yield assay, Vero cells, MOI 0.1, 48 hours post infection

Row | SMILES | EC50 [1, 5] [µM] | EC50 ([2]; DENV1, viral yield assay) [µM] | EC50 ([3]; DENV3, viral yield assay) [µM] | EC50 ([4]; DENV4, viral yield assay) [µM] | EC50 ([1]; DENV2, Vero, 48 h) [µM] | EC50 ([1]; DENV2, Vero cells) [µM] | EC50 ([2]; DENV1) [µM] | EC50 ([3]; DENV3) [µM] | EC50 ([4]; DENV4) [µM]
1 | Nc1c(C(=O)Nc2cccc(Cl)c2)sc2nc(-c3ccc(Cl)cc3)ccc12 [Compound 344, 3-amino-N-(3-chlorophenyl)-6-(4-chloro-phenyl)thieno[2,3-b]pyridine-2-carboxamide] | < 5 | < 5 | < 5 | < 5 |  |  |  |  | 
2 | C=CCSc1nc2ccc(NC(=O)c3sc4nc(-c5cccc(OC)c5)ccc4c3N)cc2s1 [Compound 569, N-(2-allylsulfanyl-1,3-benzothiazol-6-yl)-3-amino-6-(3-methoxyphenyl)thieno [2,3-b]pyridine-2-carboxamide] | < 5 | < 5 | 5 to 25 | < 5 |  |  |  |  | 
3 | COc1cccc(-c2ccc3c(N)c(C(=O)Nc4ccc(OC(F)(F)F)cc4)sc3n2)c1 [Compound 430, 3-amino-6-(3-methoxyphenyl)-N-[4-(trifluoromethoxy)phenyl]thieno[2,3-b] pyridine-2-carboxamide] | < 5 | < 5 | < 5 | < 5 |  |  |  |  | 
4 | Nc1c(C(=O)Nc2ccc(Cl)cc2F)sc2nc(-c3ccc4c(c3)OCO4)ccc12 [Compound 598, 3-amino-6-(1,3-benzodioxol-5-yl)-N-(4-chloro-2-fluoro-phenyl)thieno[2,3-b] pyridine-2-carboxamide] | < 5 | < 5 | < 5 | < 5 |  |  |  |  | 
5 | Nc1c(C(=O)Nc2cccc(C(F)(F)F)c2)sc2nc(-c3ccc4c(c3)OCO4)ccc12 [Compound 453, 3-amino-6-(1,3-benzodioxol-5-yl)-N-[3-(trifluoromethyl)phenyl]thieno[2,3-b] pyridine-2-carboxamide] | < 5 | < 5 | < 5 | < 5 |  |  |  |  | 
6 | COc1cccc(-c2ccc3c(N)c(C(=O)Nc4ccc(OC)cc4C)sc3n2)c1 [Compound 507, 3-amino-N-(4-methoxy-2-methyl-phenyl)-6-(3-methoxyphenyl)thieno[2,3-b] pyridine-2-carboxamide] | < 5 | < 5 | < 5 | < 5 |  |  |  |  | 
7 | Cc1cc(Br)ccc1NC(=O)c1sc2nc(-c3ccc4c(c3)OCO4)ccc2c1N [Compound 497, 3-amino-6-(1,3-benzodioxol-5-yl)-N-(4-bromo-2-methyl-phenyl)thieno[2,3-b] pyridine-2-carboxamide] | < 5 | < 5 | < 5 | < 5 |  |  |  |  | 
8 | COc1cccc(-c2ccc3c(N)c(C(=O)Nc4cccc(Cl)c4C)sc3n2)c1 [Compound 543, 3-amino-N-(3-chloro-2-methyl-phenyl)-6-(3-methoxyphenyl)thieno[2,3-b] pyridine-2-carboxamide] | < 5 | < 5 | < 5 | < 5 |  |  |  |  | 
9 | COc1cccc(-c2ccc3c(N)c(C(=O)Nc4ccc(F)cc4)sc3n2)c1 [Compound 510, 3-amino-N-(4-fluorophenyl)-6-(3-methoxyphenyl)thieno[2,3-b]pyridine-2-carboxamide] |  | < 5 | < 5 | < 5 | < 5 |  |  |  | 
10 | COc1cccc(-c2ccc3c(N)c(C(=O)Nc4ccc(SC)cc4)sc3n2)c1 [Compound 566, 3-amino-6-(3-methoxyphenyl)-N-(4-methylsulfanylphenyl)thieno[2,3-b] pyridine-2-carboxamide] | < 5 | < 5 | < 5 | < 5 |  |  |  |  | 
11 | CCOc1ccc(NC(=O)c2sc3nc(-c4ccc(OC)c(OC)c4)ccc3c2N)cc1 [Compound 635, 3-amino-6-(3,4-dimethoxyphenyl)-N-(4-ethoxyphenyl)thieno[2,3-b]pyridine-2-carboxamide] | < 5 | < 5 | > 25 | < 5 |  |  |  |  | 
12 | Nc1c(C(=O)Nc2ccc(Cl)c(C(F)(F)F)c2)sc2nc(-c3ccc4c(c3)OCO4)ccc12 [Compound 600, 3-amino-6-(1,3-benzodioxol-5-yl)-N-[4-chloro-3-(trifluoromethyl)phenyl]thieno [2,3-b]pyridine-2-carboxamide] | < 5 | < 5 | < 5 | < 5 |  |  |  |  | 
13 | COc1ccc(NC(=O)c2sc3nc(-c4ccc(Cl)cc4)ccc3c2N)c(OC)c1 [Compound 652, 3-amino-6-(4-chlorophenyl)-N-(2,4-dimethoxyyphenyl)thieno[2,3-b]pyridine-2-carboxamide] | < 5 | < 5 | < 5 | < 5 |  |  |  |  | 
14 | Nc1c(C(=O)Nc2cccc(F)c2)sc2nc(-c3ccc(F)cc3)ccc12 [Compound 489, 3-amino-N-(3-fluroophenyl)-6-(4-fluroophenyl)thieno[2,3-b]pyridine-2-carboxamide] | < 5 | < 5 | < 5 | < 5 |  |  |  |  | 
15 | Nc1c(C(=O)Nc2ccc(F)c(F)c2)sc2nc(-c3ccc4c(c3)OCO4)ccc12 [Compound 597, 3-amino-6-(1,3-benzodioxol-5-yl)-N-(3,4-difluorophenyl)thieno[2,3-b]pyridine-2-carboxamide] |  | < 5 | < 5 | < 5 | < 5 |  |  |  | 
16 | CCCCNc1c(C(=O)Nc2nnc(-c3ccccc3)s2)sc2nc3c(cc12)CCCCC3 [Compound 289, 3-(butylamino)-N-(5-phenyl-1,3,4-thiadiazol-2-yl)-6,7,8,9-tetrahydro-5H-cyclohepta[b]thieno[3,2-e]pyridine-2-carboxamide] |  |  |  |  |  | < 5 | < 5 | < 5 | < 5
17 | COc1ccc(-c2ccc3c(N)c(C(=O)Nc4ccc(Br)cc4)sc3n2)cc1 [Compound 469, 3-amino-N-(4-bromophenyl)-6-(4-methoxyphenyl)thieno[2,3-b]pyridine-2-carboxamide] | < 5 | < 5 | < 5 | < 5 |  |  |  |  | 
18 | Nc1c(C(=O)Nc2cc(Cl)cc(Cl)c2)sc2nc(-c3cccs3)ccc12 [Compound 431, 3-amino-N-(3,5-dichloropehnyl)-6-(2-thienyl)thieno[2,3-b]pyridine-2-carboxamide] | < 5 | < 5 | < 5 | < 5 |  |  |  |  | 
19 | Nc1c(C(=O)Nc2ccccc2C(F)(F)F)sc2nc(-c3cccs3)ccc12 [Compound 437, 3-amino-6-(2-thienyl)-N-[2-(trilfuoromethyl)phenyl]thieno[2,3-b] pyridine-2-carboxamide] | < 5 | < 5 | < 5 | < 5 |  |  |  |  | 
20 | COc1ccc(-c2ccc3c(N)c(C(=O)Nc4ccc(Cl)cc4F)sc3n2)cc1OC [Compound 534, 3-amino-N-(4-chloro-2-fluoro-phenyl)-6-(3,4-dimethoxyphenyl)thieno[2,3-b] pyridine-2-carboxamide] | < 5 | < 5 | < 5 | < 5 |  |  |  |  | 
21 | COc1cccc(-c2ccc3c(N)c(C(=O)Nc4ccc(Cl)c(C(F)(F)F)c4)sc3n2)c1 [Compound 498, 3-amino-N-[4-chloro-3-(trifluoromethyl)phenyl]-6-(3-methoxyphenyl)thieno [2,3-b]pyridine-2-carboxamide] | < 5 | < 5 | < 5 | < 5 |  |  |  |  | 

From patent US20170121344A1 (Siga Technologies, Inc., priority 2009, published 2017)
